Results from patent US6133039A, “In vivo method for determination of oxidative stress” (Washinton University, priority 2000, dated 2000).
Each block holds one compound with its values, some of them ahead of it.

How the values were obtained:
[1] = 3-nitrotyrosine given to animals; Tabrizi-Fard et al.; cited from earlier work
[2] = Metabolic fate of radiolabeled dityrosine injected intravenously into mice (blood, tissue and urine radioactivity); type: in vivo
Description: Mice were injected with 2×10^5 cpm of [^14 C]dityrosine. FIG. 3A: Blood was collected at the indicated times by retro-orbital bleeding. FIG. 3B: Animals were sacrificed at the indicated times after injection of [^14 C]dityrosine. Recovery of radiolabeled material in tissues and urine was quantified by scintillation spectroscopy.
(§1) o,o'-[^14 C]Dityrosine (2×10^5 cpm) was injected into the animals intravenously. Plasma was centrifuged (400×g for 20 min at 4° C.) from blood collected by retro-orbital bleeding. Tissue samples were collected from animals killed by cervical dislocation, weighed and then homogenized in deionized water. Radioactivity in tissue homogenates, plasma, and urine was determined by liquid scintillation spectroscopy (Beckman LS 3801) with correction for quenching. [^14 C]Dityrosine was prepared from L-[^14 C]tyrosine (American Radiolabeled Chemicals Co.; St. Louis, Mo.) and o,o'-[^13 C12 ]dityrosine was prepared from L-[^13 C6 ]tyrosine (Cambridge Isotope Inc.; Andover, Mass.) using horseradish peroxidase (Boehringer Mannheim Biochemicals; Indianapolis, Ind.) and H2 O2 (Fisher Scientific Co.; Pittsburgh, Pa.) and isolated by reverse-phase HPLC; (27). o,o'-[^14 C]Dityrosine and radiolabeled material in urine were analyzed by HPLC (27) using a reverse-phase column (ODS ultrasphere, 250 mm×4.6 mm, particle size 5 μm.; Beckman,) and a flow rate of 1 ml/min. The column was equilibrated with 100% solvent A (1% acetic acid in water). Compounds were eluted with a discontinuous gradient of solvent B (1% acetic acid in methanol). The gradient was 0%-10% solvent B over 10 min, 10% solvent B for 4 min, 10%-100% solvent B over 5 min and 100% solvent B for 10 min. Prior to HPLC analysis, urinary amino acids were isolated by solid-phase extraction as outlined above. Recovery of radiolabeled material from urine subjected to this procedure was>90%. Radioactivity in each HPLC fraction was quantified by liquid scintillation spectroscopy.

[3] = Reverse-phase HPLC analysis of urine of animals injected intravenously with o,o'-[^14 C]dityrosine; type: in vivo, mice; settings: urine after intravenous injection
Description: Urine collected from animals injected with [^14 C]dityrosine was subjected to reverse-phase HPLC analysis with monitoring of radioactivity by scintillation spectroscopy.
as §1, with “Compounds were eluted with a discontinuous gradient of solvent B (1% acetic acid in methanol). The gradient was 0%-10% solvent B over 10 min, 10% solvent B for 4 min, 10%-100% solvent B over 5 min and 100% solvent B for 10 min. Prior to HPLC analysis, urinary amino acids were isolated by solid-phase extraction as outlined above. Recovery of radiolabeled material from urine subjected to this procedure was>90%.” left out

[4] = system: peritoneal phagocytes of wild-type mice; assay: Protein-bound o,o'-dityrosine in peritoneal leukocytes activated in vivo with zymosan, isotope dilution GC/MS; parameters: species or system mice (C57BL/6J)
Description: (§2) Thioglycolate-elicited peritoneal inflammatory cells were activated in vivo with zymosan. FIG. 2A: At the indicated time (n=3 animals) or FIG. 2B: 3 h after injection of zymosan, protein-bound o,o'-dityrosine in cellular proteins was quantified by isotope dilution GC/MS.
(§3) The animal studies committee of Washington University School of Medicine in St. Louis approved all protocols. The C57BL/6J mice used for these experiments were obtained from Jackson Laboratories (Bar Harbor, […].) and bred and maintained under pathogen-free conditions. Impaired O2^.cndot.- by phorbol ester-stimulated neutrophils isolated from CGD mice deficient in gp91 phox (13) was confirmed by monitoring the superoxide dimutase inhibitable reduction of ferricytochrome c (10). Mice were fed rodent diet 5001 (Harlan-Teklad, Madison, Wis.). Between ages 9 and 11 weeks, the mice were injected with one ml of 4% thioglycollate to recruit leukocytes into the peritoneum. The leukocytes were activated 20 hours (h) later by intraperitoneal injection of zymosan (250 mg/kg). Control animals were injected with one ml of buffer A (138 mM NaCl, 3 mM KCl, 0.1 M sodium phosphate, pH 7.4). Prior to and every 2 h during urine collection, the animals were injected intraperitoneally with 2 ml of buffer A.
Animals were killed by decapitation after metophane-induced anesthesia. After the abdominal wall was washed with 95% ethanol, leukocytes were harvested from the peritoneum using a siliconized glass pipette. The peritoneum was lavaged 3 times with 4 ml of ice-cold Hanks' Balanced Salt Solution (HBSS) containing 100 μM DTPA. Cells were suspended in ice-cold HBSS, collected by low speed centrifugation, and stored at -80° C. until analysis. […]
(§4) Amino acids were converted to their n-propyl esters, heptafluorobutyryl derivatives and quantified by isotope dilution gas chromatography/mass spectrometry (GC/MS) with selected ion monitoring (20,21). […] The ions monitored were: L-tyrosine, m/z 417 and 595; L-[^13 C6 ]tyrosine, m/z 423 and 601; o,o'-dityrosine, m/z 1030 and 1208; o,o'-[^13 C12 ]dityrosine, m/z 1042 and 1220.

peritoneal phagocytes = assay: Recruitment of peritoneal cells by thioglycollate; type: in vivo, mice
Excerpt: as §3
Animals were killed by decapitation after metophane-induced anesthesia. After the abdominal wall was washed with 95% ethanol, leukocytes were harvested from the peritoneum using a siliconized glass pipette. The peritoneum was lavaged 3 times with 4 ml of ice-cold Hanks' Balanced Salt Solution (HBSS) containing 100 μM DTPA. Cells were suspended in ice-cold HBSS, collected by low speed centrifugation, and stored at -80° C. until analysis.
To determine whether white blood cells oxidatively damage proteins in vivo, isotope dilution GC/MS was used to quantify levels of o,o'-dityrosine in mouse peritoneal phagocytes. To recruit neutrophils into the peritoneum, the animals were injected with thioglycollate, a chemical irritant. Twenty hours after this first injection, the animals were given an intraperitoneal injection of zymosan, which stimulates phagocytes to produce H2 O2 and secrete myeloperoxidase into the phagolysosome (6). Thioglycollate-injected mice typically yielded 20-40×10^6 peritoneal cells. Neutrophils, mononuclear cells, and eosinophils represented 67±4%, 30±4%, and<1% of the harvested phagocytes (n=6 animals).

[5] = system: peritoneal phagocytes of CGD mice; assay: Protein-bound o,o'-dityrosine in peritoneal phagocytes, isotope dilution GC/MS, CGD mice; type: in vivo; settings: 3 hours of zymosan stimulation, mice deficient in NADPH oxidase
Description: as §2
as §3, with “The leukocytes were activated 20 hours (h) later by intraperitoneal injection of zymosan (250 mg/kg). Control animals were injected with one ml of buffer A (138 mM NaCl, 3 mM KCl, 0.1 M sodium phosphate, pH 7.4). Prior to and every 2 h during urine collection, the animals were injected intraperitoneally with 2 ml of buffer A.” left out
as §4

Compound: N[C@@H](Cc1ccc(O)c([N+](=O)[O-])c1)C(=O)O [3-nitrotyrosine]
amount excreted into urine [1]: Minimal amounts

radiolabeled material lost from the blood ([2]; 5 min after intravenous injection): more than 50%
radioactivity recovered in the urine ([2]; 1 h after intravenous injection): Thirty
radioactivity recovered in the urine ([2]; 3 h after intravenous injection): 65%
radioactivity recovered in the urine ([2]; 4 h after intravenous injection): 81%
radiolabeled material in blood, liver, spleen, and heart ([2]; after intravenous injection): essentially undetectable
radiolabeled material present in kidney ([2]; after intravenous injection): < 5%
apparent half-life in the blood (slower phase) ([2]; intravenous): ~ 30 min
clearance kinetics from the blood ([2]; intravenous): biphasic kinetics
radioactivity in urine co-migrating with authentic o,o'-[^14 C]dityrosine [3]: More than 80%
Compound: N[C@@H](Cc1ccc(O)c(-c2cc(C[C@H](N)C(=O)O)ccc2O)c1)C(=O)O [o,o'-[^14 C]dityrosine]

recovery of radioactive material in the urine (in words) ([2]; between 3 h and 4 h after intravenous injection): recovered almost quantitatively
Compound: NC(Cc1ccc(O)c(-c2cc(CC(N)C(=O)O)ccc2O)c1)C(=O)O (centres unmarked) [o,o'-dityrosine]
o,o'-dityrosine content of resident thioglycollate-elicited neutrophils ([4]; before zymosan): ~ 50 μmol per mol tyrosine

Compound: thioglycollate
eosinophils among harvested phagocytes (peritoneal phagocytes; n=6 animals): < 1%
mononuclear cells among harvested phagocytes (peritoneal phagocytes; n=6 animals): 30±4%
neutrophils among harvested phagocytes (peritoneal phagocytes; n=6 animals): 67±4%
peritoneal cells yielded (peritoneal phagocytes; thioglycollate-injected mice): 20-40 ×10^6 peritoneal cells

Compound: zymosan
time of peak of protein-bound o,o'-dityrosine ([4]; after zymosan injection): 3 h
increase of o,o'-dityrosine in cellular proteins ([4]; neutrophils exposed to zymosan in vivo): 4 fold
o,o'-dityrosine in phagocyte proteins [5]: undetectable
increase in protein-bound dityrosine ([5]; p<0.0005): completely abrogated
